# Experiment: gradient 5% acetonitrile 3 min, to 50% in 2 min, to 85% in 15 min, held 3 min, 100 µL/min
# Details: column: Zorbax Extend-C18 2.1 x 50 mm; eluents: water / acetonitrile, 0.1% formic acid
# Summary of the method: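 Retention time was recorded from adduct peaks, which were picked computationally and each inspected manually. Pure standards ran in mixtures of ~100 molecules on HPLC coupled to a quadrupole time-of-flight mass spectrometer, in positive and negative ionization mode, through a Zorbax Extend-C18 column (2.1 × 50 mm, 1.8 μm) at 100 μL/min. Eluents were water and acetonitrile, each with 0.1% formic acid.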
row,RP-LC retention time [s],Structure (SMILES)
1,938,CC(=O)c1ccc(NC(=O)COc2cc(C)nc(-c3ccc(F)cc3)n2)cc1
2,950,COc1ccc(-c2nc(CNC(=O)c3coc(-c4ccccc4)n3)no2)cc1
3,937,c1ccc(N2CCN(Cc3nc(-c4ccc(N5CCSCC5)nc4)no3)CC2)cc1
4,893,O=C1C2N=NN(Cc3nc(-c4ccc5c(c4)OCO5)no3)C2C(=O)N1c1ccccc1 (stereo not drawn)
5,1340,CCn1nccc1-c1cccc(-c2noc(-c3ccc(Cl)cc3)n2)c1
6,716,O=C(c1nnn(-c2ccccc2Cl)c1-c1ccncc1)N1CCCC1
7,826,CCN1C(=O)c2cccnc2Sc2cc(NC(=O)Cc3cccc(F)c3)ccc21
8,853,COc1cnc(SC)nc1Nc1ccc(C#N)cc1
9,866,Cc1cccc(C2CCCN2C(=O)Cn2cc(Cl)cn2)c1 (stereo not drawn)
10,924,COc1ccccc1CC(=O)Nc1ccc(-c2nc(Cn3nc(C)cc3C)c(C)o2)cc1
11,664,CC1CCN(S(=O)(=O)c2ccc(-c3nnc(C(=O)NCCCN4CCOCC4)o3)cc2)CC1
12,926,O=c1c2c(CO)c(-c3ccccc3)nn2ccn1CCc1ccccc1
13,796,CCc1nc(-c2csc(S(=O)(=O)N3CCC(C(=O)N4CCOCC4)CC3)c2)no1
14,762,CN1CCC=C(C(=O)N2c3ccccc3Sc3ccc(Cl)cc32)C1
15,1160,Cn1nccc1-c1cccc(-c2noc(/C=C/c3ccccc3)n2)c1
16,864,Cc1csc(-c2cc(S(=O)(=O)NCc3ccco3)c(C)n2C)n1
17,756,O=C(Cn1nc2n(c1=O)CCCCC2)NCc1ccc2c(c1)OCO2
18,598,CCN(CC)S(=O)(=O)c1cccc(-c2cn3cc(C)ccc3n2)c1
19,586,Cc1cc(N2CCN(C)CC2)nc(N2CCN(C(=O)c3ccc(C(C)(C)C)cc3)CC2)n1
20,775,O=C(c1ccccc1Cl)N1CCCC(c2nnc(-c3cccs3)o2)C1 (stereo not drawn)
21,660,Cc1cnc(C2CC2)n1C1CCN(S(=O)(=O)c2ccc(C#N)cc2)CC1
22,573,CN(CCNc1nc2ccncc2n(Cc2ccccc2)c1=O)C1CCCCC1

row,RP-LC retention time [s],Structure (SMILES)
1,799,Cc1ccc(NC(=O)N2CCN(c3nc(N)nc4sc(-c5cccnc5)nc34)CC2)cc1
2,631,CCCCNC(=O)C1CCN(c2cc(N3CCSCC3)ncn2)CC1
3,1050,O=C(Nc1ccc(Br)cc1)N1CCCC1c1nc(-c2ccc(F)cc2F)no1 (stereo not drawn)
4,1060,COC(=O)c1[nH]c(C)c(CN(C(=O)C2CCCCC2)C2CCCC2)c1C
5,796,COc1ccc2c(CCNC(=O)CCc3ccccc3)c[nH]c2c1
6,893,Cc1c(S(=O)(=O)NCc2cccs2)c(C)n(C)c1-c1nnc(C2CCC2)o1
7,616,O=C(c1ccc2c(c1)nnn2CCN1CCOCC1)N1CCN(c2ccccc2)CC1
8,821,CCCn1cc(CCNC(=O)c2ccc(Cl)cc2)c2cccnc21
9,652,O=C(NC1CCCCCC1)C1CCN(c2cn[nH]c(=O)c2)C1 (stereo not drawn)
10,694,COc1nccnc1N1CCC(N(C)C(=O)c2ccc3c(c2)OCO3)C1 (stereo not drawn)
11,714,CC(c1ccccc1)c1nc(-c2ccc3c(c2)nnn3CCN2CCOCC2)no1 (stereo not drawn)
12,1310,CCC(Sc1nnc2c3ccccc3n(C(C)C)c2n1)C(=O)Nc1nc(-c2ccccc2)cs1 (stereo not drawn)
13,769,Cc1ccc(CNC(=O)C(C)Oc2cc(-c3ccccc3)c3c(C)nn(C)c3n2)o1 (stereo not drawn)
14,748,COc1ccc(-c2cc(=O)n(CC(=O)Nc3cccc4nsnc34)cn2)cc1
15,693,COc1ccccc1NC(=O)C1CCN(S(=O)(=O)c2c(C)[nH]c(C)c2C(=O)N2CCCC2)CC1
16,1080,O=c1ccn(-c2ccc(Cl)cc2)nc1-c1nc(-c2ccc(Br)cc2)no1
17,784,CC(=O)Nc1ccc2nc(NC(=O)c3cccc(C(F)(F)F)c3)sc2c1
18,1120,Cc1nn(-c2nc(-c3ccc(Cl)cc3)cs2)c(C)c1CC(=O)N1CCCC1
19,937,COc1ccccc1-c1nnc(-c2ccc(OC)c(S(=O)(=O)N3CCCCC3)c2)o1
20,946,Cc1ccc(NC(=O)Cn2c(=O)n(-c3ccc(F)cc3)c(=O)c3c2cc(C)n3C)cc1Cl
21,916,COc1cc(OC)cc(C(=O)Nc2ccc3c(c2)Sc2ncccc2C(=O)N3C(C)C)c1
22,796,Cc1ccc(S(=O)(=O)N2CCC(CCNC(=O)NC(C)C)CC2)cc1

row,RP-LC retention time [s],Structure (SMILES)
1,818,CCOc1ccc(S(=O)(=O)N2CCCC2C(=O)Nc2nccs2)cc1 (stereo not drawn)
2,657,CCCNC(=O)C1CCCN(c2nc3ncn(CC(=O)NCc4cccs4)c(=O)c3s2)C1 (stereo not drawn)
3,1140,Cc1sc(C)c(S(=O)(=O)Nc2ccc(F)cc2)c1-c1cc(C(F)(F)F)on1
4,710,CCOC(=O)C1CCN(C(=O)C2CCCN2S(=O)(=O)c2cc3c(cc2Cl)NC(=O)CO3)CC1 (stereo not drawn)
5,593,Cc1ccnc(NC(=O)c2ccc(Cn3cncn3)cc2)c1
6,603,COc1ccc(N2C(=O)CCS2(=O)=O)cc1S(=O)(=O)N1CCN(c2ccccn2)CC1
7,811,CC(=O)c1ccc2c3c(cccc13)C(=O)N(c1ccccc1)C2=O
8,763,Cc1ccc(CNC(=O)c2ccc(CN3CCN(C(C)C)C(=O)C3=O)cc2)cc1C
9,684,COc1cc(-c2oc3cc(O)cc(O)c3c(=O)c2O[C@@H]2O[C@H](CO)[C@@H](O)[C@H](O)[C@H]2O)ccc1O
10,794,CCc1ccc(NS(=O)(=O)c2ccc3c(c2)CCCC(=O)N3)cc1
11,586,CCN1CCCC1CNC(=O)c1nnc(Cc2cc(OC)c(OC)c(OC)c2)o1 (stereo not drawn)
12,891,Cn1ncc2c(Nc3ccccc3Cl)nc(Cl)nc21
13,896,Cc1cc2c(=O)n(CC(=O)Nc3ccc(C)c(Cl)c3)ccc2s1
14,921,CSc1ccc(CNC(=O)C2CCCN(C(=O)c3cc(C)cc(C)c3)C2)cc1 (stereo not drawn)
15,672,Cc1ccnc(N2CCC(C(=O)NC(C)c3ccc4c(c3)OCCO4)CC2)n1 (stereo not drawn)
16,1070,Cc1ccc(CNC(=O)C2(C)CCCN(C(=O)Nc3cccc(Br)c3)C2)cc1 (stereo not drawn)
17,856,CCCN1C(=O)c2cccnc2Sc2cc(C(=O)N3CCC(C)CC3)ccc21
18,792,CCN1C(=O)CCc2cc(NC(=O)Cc3c(F)cccc3Cl)ccc21
19,578,COc1ccccc1CN[C@H]1CCCN[C@H]1c1ccccc1
20,665,CCc1noc(NC(C)=O)c1-c1ccc(C)c(S(=O)(=O)N2CCN(c3ccccn3)CC2)c1
21,1150,O=C1CC(c2noc(CCCc3ccccc3)n2)CN1c1ccc(F)c(Cl)c1 (stereo not drawn)
22,701,Cc1ccc2c(c1)OCC(=O)N2CC(=O)NC1CC1

row,RP-LC retention time [s],Structure (SMILES)
1,535,Cc1ccn2cc(C(=O)NCCCN3CCCC3=O)nc2c1
2,895,CCOC(=O)c1c(S(=O)(=O)N2CCC(C(=O)NCc3ccc(C)cc3)CC2)c(C)n(CC)c1C
3,774,COc1cccc(CC(=O)N2CCC(C(=O)NCc3csc(-c4cccs4)n3)CC2)c1
4,773,O=C(NCC(=O)N1CCCc2ccccc21)c1cccc2[nH]ccc12
5,1230,CCOc1nccnc1N1CCC(NS(=O)(=O)C2CC2)C1 (stereo not drawn)
6,982,CCOc1ccc(-n2c(=O)c3sccc3n(Cc3nc(-c4ccc(F)cc4)no3)c2=O)cc1
7,635,Cn1cc(S(=O)(=O)NCc2cccs2)c(=O)n(C)c1=O
8,983,CCc1ccc(CNC(=O)C2CCCN(c3nn4c(=O)c5c(nc4s3)CCCC5)C2)cc1 (stereo not drawn)
9,638,CCC(C(=O)N1CCN(c2ccccn2)CC1)n1c2ccccc2c2cnn(C)c(=O)c21 (stereo not drawn)
10,626,CN(C)CCN1C(=O)c2cccc3cc(N)cc(c23)C1=O
11,1230,Cc1ccc(S(=O)(=O)N2CCc3nc(-c4ccc(F)cc4)ncc3C2)cc1Cl
12,761,Cc1ccc(NC(=O)Cn2c(C(C)C)nc3c(c2=O)CCN(Cc2ccccc2)C3)cc1C
13,577,O=S(=O)(c1cccnc1)N1CC[C@@H]2COCCN(Cc3cccnc3)[C@@H]2C1
14,669,CCc1nn2c(CNC(=O)c3cc(F)ccc3Cl)c(C)nc2s1
15,1010,O=C(NC1CCCCCC1)c1nnc(-c2ccc(S(=O)(=O)N3CCCC3)cc2)o1
16,985,Cc1ccc(CNC(=O)Cn2nc3c4cc(-c5cc(C)ccc5C)nn4ccn3c2=O)cc1
17,1230,CCOC(=O)c1ccc(NC(=O)c2sccc2S(=O)(=O)N(C)c2ccc(OCC)cc2)cc1
18,605,O=C(NCc1ccc2c(c1)OCO2)c1ccc2ncnc(N3CCOCC3)c2c1
19,651,CCOC(=O)N1CCN(C(=O)c2sc(NS(=O)(=O)c3ccccc3)nc2C)CC1
20,1010,Cc1cc(C)cc(N2CC(c3nc(-c4ccccc4F)no3)CC2=O)c1 (stereo not drawn)
21,681,COc1cc(F)ccc1-c1ccnc2ncnn12

row,Structure (SMILES),RP-LC retention time [s]
1,COc1ccc2c(c1)C1(CCN(C(=O)Nc3ccccc3OC)C1)C(=O)N2C (stereo not drawn),808
